Here are results for two sequences from PMC9179336, “Therapeutic Validation of GEF-H1 Using a De Novo Designed Inhibitor in Models of Retinal Disease” (Cells, 2022).

In data set [1] the test system is MDCK cells. Briefly: LDH release (CytoTox-ONE), MDCK cells. The following applies: overnight, increasing concentrations. The data set is classed as cell-based. As for the experimental part: (§1) HEK293 and MDCK cells were seeded in triplicate wells and incubated overnight with the indicated concentration of TAT-P5 or TAT-F1. The next day 30 μL of medium was removed from each well and incubated with 30μL of CytoTox-ONE (Promega) reagent for 40 min. Fluorescence was then measured to assess LDH release. To assess Caspase 3/7 activity cells were assayed using Apo-ONE Homogenous Caspase-3/7 assay (Promega) according to manufactures instructions.
(§2) We next tested whether the inhibitors are toxic to cultured cells. MDCK and HEK293 cells were incubated with increasing concentrations of either TAT-F1 or TAT-P5 overnight before analysis of LDH release as a measure of necrosis or Caspase 3/7 activity to assess induction of apoptosis (Figure S2).
(§3) MDCK (A) and HEK 293 (B) cells were incubated overnight with TAT-F1 or TAT-P5 at the concentrations indicated. Cell toxicity was then assessed by measuring caspase 3/7 activity in cell extracts and release of LDH into the medium. No significant cell toxicity was observed.
(§4) (1 picture or pasted object on this page, not shown here)
(In general: LDH in the medium is a marker of cell lysis.)

Data set [2] has as its system HEK293 cells. Nature of the data set: LDH release (CytoTox-ONE), HEK293 cells. The following applies: overnight, increasing concentrations. The data set is classed as cell-based. On the procedure:
as §1, §2, §3, §4

Data set [3] has as its system MDCK cells. Briefly: Caspase 3/7 activity (Apo-ONE), MDCK cells. The data set is classed as cell-based. The following applies: overnight, increasing concentrations. As for the experimental part: as §1, §2, §3, §4
The subject of data set [4] is HEK293 cells. Briefly: Caspase 3/7 activity (Apo-ONE), HEK293 cells. The data set is classed as cell-based. Conditions: overnight, increasing concentrations. On the procedure:
as §1, §2, §3, §4

Data set [5] relates to RPE cells (TGFβ-stimulated). Nature of the data set: RPE cell scratch wound migration assay. The data set is classed as cell-based, porcine. The following applies: 16 h.

Where no end group is shown, it is not given here.

Take “GRKKRRQRRRPWQGQEDYDRLRPASYPDTDVI [TAT-P5]”: the “cytotoxicity, LDH release (necrosis), MDCK” value with MDCK cells [1] is “Neither assay revealed an increase in cytotoxicity”. In the data set on HEK293 cells [2], the “cytotoxicity, LDH release (necrosis), HEK293” value is listed as “Neither assay revealed an increase in cytotoxicity”. Moreover, the “cytotoxicity, Caspase 3/7 activity (apoptosis), MDCK” value in the data set with MDCK cells [3] was “Neither assay revealed an increase in cytotoxicity”. Also, the “cytotoxicity, Caspase 3/7 activity (apoptosis), HEK293” value in the data set with HEK293 cells [4] is recorded as “Neither assay revealed an increase in cytotoxicity”.
“GRKKRRQRRRPWQDYIAEVPRSDYDLRPTGQD [TAT-scr, scrambled version of TAT-P5, negative control peptide]”: in data set [5], the “RPE cell migration (scratch closure), in words” value was “had no effect”.
